Results on one molecule are retold here after US20210283107A1, “Methods to Expand the Spectrum of Gram-Positive Antibiotics” (NORTH CAROLINA STATE UNIVERSITY, priority 2016, published 2021).

Converted amounts (≈) assume the structure as drawn.

Assay [1] deals with A. baumannii strain 5075 (AB5075). The assay can be described thus: Broth microdilution MIC determination of compound alone. The class given is cell-based. To be noted: Acinetobacter baumannii; compound alone; AB5075; read-out: MIC. The method, then:
Our initial screening began by testing a diverse selection of 2-AI compounds from our internal library for their minimal inhibitory concentrations (MIC) against A. baumannii isolate 5075.
Day Cultures (6 h) were subcultured to 5×10^5 CFU/mL in cation adjusted Mueller-Hinton broth (CAMHB). Aliquots (1 mL) were placed in culture tubes, and compound was added from 100 mM stock solutions, such that the compound concentration equaled the highest concentration tested (200 μM or 64 μg/mL). Samples were then aliquoted (200 μL) into the first row of wells of a 96-well plate, with all remaining wells being filled with 100 μL of initial bacterial subculture. The wells in row one were mixed five times before 100 μL was transferred to the following row (row two). Row two was then mixed five times, and 100 μL was transferred to row three. This processed was repeated until the final row had been mixed. This process provided a serial dilution of the compound. Plates were covered with Glad Press n'Seal and were incubated under stationary conditions at 37° C. for 16 hours. MIC values were recorded as the lowest concentration at which no bacterial growth was observed.

For assay [2] the test system is unchanged. The assay can be described thus: Macrolide sensitization / antibiotic resensitization: antibiotic MIC in presence of compound (broth microdilution). It counts as cell-based, Acinetobacter baumannii. To be noted: compound at 30 μM vs antibiotic alone; AB5075. The method in brief:
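A. baumannii AB5075 at 5×10^5 CFU/mL in CAMHB held a fixed compound level while antibiotic was serially diluted. After 16-18 h static at 37° C, MIC was the lowest antibiotic concentration without visible growth. Fold-reduction is relative to antibiotic alone, from duplicates repeated at least twice.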

For another assay, the system named is AB5075. Description: Checkerboard assay for FIC determination with colistin. The class given is cell-based, Acinetobacter baumannii. To be noted: chequerboard, ΣFIC≥2 considered antagonistic. The method, then:
Against AB5075, we determined that the ΣFIC with compound 1 to be 17 and the ΣFIC with compound 10 to be 33. These ΣFIC values indicate that both compounds are highly antagonistic with colistin as a ΣFIC≥2 is considered antagonistic.
Day Cultures (6 h) of A. baumannii 5075 were subcultured to 5×10^5 CFU/mL in cation adjusted Mueller-Hinton broth (CAMHB). 100 μL of the inoculated media was distributed into all wells of a 96-well plate except well 1A. Inoculated CAMHB (200 μL) containing compound (twice the highest concentration tested) was added to well 1A, and 100 μL of the same sample was added to wells 2A-12A. The contents in column A were mixed five times before 100 μL was transferred to column B. The contents of column B were mixed 5 times before transferring to column C. This process was repeated with the remainder of the columns up to column G. Column H was not mixed to allow determination of the antibiotic MIC alone. […] Row 12 was not mixed so that the MIC of the compound alone could be determined. The MICs of both compound and antibiotic alone were recorded, as well as the wells containing the combination. The ΣFICs were calculated as follows: ΣFIC=FIC (Compound)+FIC (antibiotic), where FIC (compound) is the MIC of the compound in the combination/MIC of the compound alone and the FIC (antibiotic) is the MIC of the antibiotic in combination/the MIC of the antibiotic alone. […]

In general, MIC refers to the lowest concentration that inhibits growth of the organism. Take `Nc1nc(-c2ccc(NC(=O)c3c(Cl)cc(Cl)cc3Cl)cc2)c[nH]1` [Compound 10]: the MIC in assay [1] came to 100 µM (≈ 38.2 µg/mL). For the same molecule, the “Fold reduction (erythromycin MIC)” value in assay [2] turned out to be 8 fold. In addition, the ΣFIC with colistin in the assay on AB5075 is given as 33.
